Experimental data as given in patent US20040006236A1, “Diaminopropionic acid derivatives” (priority 1999, published 2004).

Molecular target: T1, LFA-1 binding to immobilized ICAM-1 (Homo sapiens, UniProt P05107+P20701)
T1 construct: made in house; host or cells: transfected 293 cells (LFA-1)
Assay: LFA-1/ICAM-1 protein-protein assay (solid-phase ELISA)
Details: read-out: LFA-1/ICAM-1 Protein-Protein Assay IC50
Summary of the method: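 Human 5dICAM-Ig (ICAM-1 extracellular domain–IgG Fc) coated on plates; membrane-bound LFA-1 from transfected 293 cells (280 ng/mL) added with compound in Mn2+-containing HEPES buffer pH 7.2, 2 h at 37° C. Bound LFA-1 detected via anti-β2 antibody and HRP/TMB at 450 nm; IC50s determined.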

T1 sequence (P20701 26-1170): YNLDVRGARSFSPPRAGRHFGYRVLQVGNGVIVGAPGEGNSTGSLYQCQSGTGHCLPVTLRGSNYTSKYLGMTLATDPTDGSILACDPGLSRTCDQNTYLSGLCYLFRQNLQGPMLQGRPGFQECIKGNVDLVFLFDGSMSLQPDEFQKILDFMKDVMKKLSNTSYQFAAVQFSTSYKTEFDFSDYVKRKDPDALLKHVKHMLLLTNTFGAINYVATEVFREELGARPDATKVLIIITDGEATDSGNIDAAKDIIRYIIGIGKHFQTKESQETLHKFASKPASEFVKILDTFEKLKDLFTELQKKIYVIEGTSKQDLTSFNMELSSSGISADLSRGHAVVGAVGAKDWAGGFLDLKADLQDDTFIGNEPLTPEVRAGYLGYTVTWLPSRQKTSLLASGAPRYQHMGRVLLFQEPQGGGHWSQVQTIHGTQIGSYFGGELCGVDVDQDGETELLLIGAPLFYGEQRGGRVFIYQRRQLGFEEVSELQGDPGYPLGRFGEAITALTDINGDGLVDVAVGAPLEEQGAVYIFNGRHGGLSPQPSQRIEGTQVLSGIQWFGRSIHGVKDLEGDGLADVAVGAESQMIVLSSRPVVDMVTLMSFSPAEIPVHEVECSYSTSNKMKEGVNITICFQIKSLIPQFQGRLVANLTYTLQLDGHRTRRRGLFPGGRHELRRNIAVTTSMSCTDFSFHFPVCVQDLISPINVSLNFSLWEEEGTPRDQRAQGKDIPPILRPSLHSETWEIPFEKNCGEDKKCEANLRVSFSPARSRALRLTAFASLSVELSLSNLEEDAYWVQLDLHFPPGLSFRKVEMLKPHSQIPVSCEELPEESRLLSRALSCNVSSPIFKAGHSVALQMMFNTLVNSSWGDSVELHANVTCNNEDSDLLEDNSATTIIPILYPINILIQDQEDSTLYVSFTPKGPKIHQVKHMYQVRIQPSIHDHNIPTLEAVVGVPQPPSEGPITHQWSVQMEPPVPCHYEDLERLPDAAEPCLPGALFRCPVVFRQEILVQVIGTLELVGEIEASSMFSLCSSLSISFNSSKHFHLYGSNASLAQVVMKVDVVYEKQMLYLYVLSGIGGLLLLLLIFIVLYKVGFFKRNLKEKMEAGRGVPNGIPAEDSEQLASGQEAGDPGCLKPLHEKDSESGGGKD
T1 sequence (P05107 23-769): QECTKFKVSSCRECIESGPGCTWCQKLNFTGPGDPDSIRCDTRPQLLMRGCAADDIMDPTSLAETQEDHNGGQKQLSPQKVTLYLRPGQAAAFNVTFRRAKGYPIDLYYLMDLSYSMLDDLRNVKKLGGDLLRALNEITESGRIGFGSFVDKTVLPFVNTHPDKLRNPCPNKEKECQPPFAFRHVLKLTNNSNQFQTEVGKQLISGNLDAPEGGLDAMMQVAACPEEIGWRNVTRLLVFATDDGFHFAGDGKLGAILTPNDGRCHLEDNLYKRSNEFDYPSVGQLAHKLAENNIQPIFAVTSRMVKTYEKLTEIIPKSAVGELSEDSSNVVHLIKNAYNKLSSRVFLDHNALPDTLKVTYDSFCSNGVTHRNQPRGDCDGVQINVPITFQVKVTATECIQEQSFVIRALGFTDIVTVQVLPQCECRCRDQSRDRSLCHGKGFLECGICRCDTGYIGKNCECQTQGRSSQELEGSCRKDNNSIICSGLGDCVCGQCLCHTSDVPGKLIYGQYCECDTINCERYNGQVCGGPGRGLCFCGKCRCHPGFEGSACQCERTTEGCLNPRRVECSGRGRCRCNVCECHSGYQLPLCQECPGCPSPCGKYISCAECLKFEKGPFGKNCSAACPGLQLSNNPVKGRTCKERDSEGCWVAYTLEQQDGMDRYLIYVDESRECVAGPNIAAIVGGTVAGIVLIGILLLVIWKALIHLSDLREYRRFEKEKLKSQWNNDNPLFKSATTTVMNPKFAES

Work on `O=C(CC1CCCC1)NC[C@H](NC(=O)c1ccc(C(=O)NCc2cccc(O)c2)cc1Cl)C(=O)O` [Example 77] yielded an IC50 of 2.1 nM.
